≈ marks a conversion by molar mass, not a printed value. Where “and” joins values, the source holds several entries; their conditions need not be identical. Equal entries are not always repeated. Where two headings read alike, the source gives them in different places.
How the values were obtained:
[1] = test system: PMM (primary mouse macrophages); test: Toxicity against PMM; type: cell-based
Procedure: (§1) ADME and toxicity for compounds were measured according to procedures outlined in the manuscript submitted in parallel to this one;2 other procedures were used for those compounds analysed by Monash University (in vitro ADME) or UCL (toxicity), both described in the main

[2] = test system: S. aureus ATCC 25923 (methicillin-susceptible); test: In vitro antibacterial activity, MIC (UCL), MSSA; type: cell-based, Staphylococcus aureus; conditions: for MIC: Staphylococcus aureus
Procedure: (§2) Staphylococcus aureus NCTC 13373 (mecA-positive; methicillin-resistant, NCTC 13373) was supplied by the National Collection of Type Cultures (NCTC), Public Health England, United Kingdom. Other organisms, S. aureus ATCC 25923 (methicillin-susceptible) and Enterococcus faecalis ATCC 51299 (vanA-positive; vancomycin-resistant), were obtained from the American Type Culture Collection (ATCC) via LGC Standards, UK. A suspension of each organism was prepared from an overnight plate culture (tryptone soya agar) in phosphate-buffered saline (PBS) and adjusted to an absorbance reading at 600 nm of 0.1, which is approximately equivalent to 1 × 10^8 colony-forming units (CFU) per mL. The cultures were further diluted 1:100 in isosensitest broth (Oxoid, United Kingdom) before 100 μL was used to inoculate each well of a 96-well plate that contained diluted samples of the OSA series. Compounds were evaluated over a 2-fold dilution range from 32 to 0.03 μg/mL. Stocks of the samples were prepared in 100% DMSO at […] before being diluted in isosenstitest broth. The highest concentration of DMSO present was 2%, which has been previously shown not to inhibit the growth of the microorganisms (data not shown). […] Vancomycin was used as a quality control compound.

[3] = test system: Staphylococcus aureus NCTC 13373 (mecA-positive; methicillin-resistant); test: In vitro antibacterial activity, MIC (UCL School of Pharmacy assay), MRSA; type: cell-based; conditions: for MIC: Staphylococcus aureus
Procedure: as §2

[4] = test system: MRC-5SV2 (human lung fibroblast cell line); test: Toxicity against MRC-5SV2; type: cell-based
Procedure: as §1

[5] = UCL assay, read-out: MSSA MIC (ug/mL) (UCL)
[6] = UCL assay, read-out: MRSA MIC (ug/mL) (UCL)

| MIC [2, 5] [µg/mL] | MIC [3, 6] [µg/mL] | MIC ([2]; read-out: MSSA MIC) [µg/mL] | MRSA MIC [3] | MIC ([3]; read-out: MRSA MIC) [µg/mL] | MSSA MIC [2] [µg/mL] | Compound | PMM TC50 ([1]; PMM) [µM] | MRC5 TC50 ([4]; MRC5 cells) [µM] | PMM TC50 [1] [µg/mL] | MRC5 TC50 [4] [µg/mL] |
| --- | --- | --- | --- | --- | --- | --- | --- | --- | --- | --- |
| > 32 | > 32 |  |  |  |  | Fc1ccc(NCc2c(-c3ccccn3)nc3ccccn23)cc1 [OSA_001019] | 64 | 64 |  |  |
| > 32 | > 32 |  |  |  |  | Cc1ccc2nc(-c3ccccc3)cn2c1 [OSA_001026] | 64 | 64 |  |  |
| > 32 | > 32 |  |  |  |  | Cc1ccc2nc(-c3ccccc3)c(CNc3ccc(F)cc3)n2c1 [OSA_001027] | 64 | 64 |  |  |
| > 32 | > 32 |  |  |  |  | Cc1ccc2nc(-c3ccccc3)c(CNc3cccc(C(F)(F)F)c3)n2c1 [OSA_001028] | 64 | 64 |  |  |
| 8 (≈ 18.3 µM) | 8 (≈ 18.3 µM) |  |  |  |  | CCCCN(Cc1c(-c2ccccc2)nc2ccc(C)cn12)c1cccc(C(F)(F)F)c1 [OSA_001029] | 8 | 1.19 |  |  |
| > 32 | > 32 |  |  |  |  | Cc1ccn2cc(-c3ccccn3)nc2c1 [OSA_001030] | 64 | 22.11 |  |  |
| > 32 | > 32 |  |  |  |  | Cc1ccn2c(CNc3ccc(F)cc3)c(-c3ccccn3)nc2c1 [OSA_001031] | 64 | 64 |  |  |
| 32 (≈ 82.4 µM) | 32 (≈ 82.4 µM) |  |  |  |  | CCCCN(Cc1c(-c2ccccn2)nc2cc(C)ccn12)c1ccc(F)cc1 [OSA_001032] | 32 | 16 |  |  |
| > 32 | > 32 |  |  |  |  | Cc1ccn2c(CN(CC(C)C)c3cccc(C(F)(F)F)c3)c(-c3ccccn3)nc2c1 [OSA_001033] | 32 | 9.78 |  |  |
| 16 (≈ 48.6 µM) | 16 (≈ 48.6 µM) |  |  |  |  | FC(F)(F)c1ccc(-c2c(-c3ccccn3)nc3n2CCC3)cc1 [OSA_001052] | 32 | 8.17 |  |  |
| > 32 | > 32 |  |  |  |  | Fc1ccc(-c2c(-c3ccccn3)nc3n2CCC3)cc1 [OSA_001053] | 32 | 7.55 |  |  |
| > 32 | > 32 |  |  |  |  | c1ccc(-c2nc3n(c2-c2ccncc2)CCC3)nc1 [OSA_001072] | 64 | 64 |  |  |
| > 32 | > 32 |  |  |  |  | Fc1cc(-c2c(-c3ccccn3)nc3n2CCC3)ccn1 [OSA_001073] | 32 | 30.55 |  |  |
| > 32 | > 32 |  |  |  |  | Nc1ccc(-c2c(-c3ccccn3)nc3n2CCC3)cc1 [OSA_001074] | 8 | 5.73 |  |  |
| > 32 | > 32 |  |  |  |  | N#Cc1ccc(-c2c(-c3ccccn3)nc3n2CCC3)cn1 [OSA_001075] | 64 | 64 |  |  |
| > 32 | > 32 |  |  |  |  | COc1cc(-c2c(-c3ccccn3)nc3n2CCC3)ccc1C#N [OSA_001076] | 64 | 27.86 |  |  |
| > 32 | > 32 |  |  |  |  | N#Cc1ccc(-c2c(-c3ccccn3)nc3n2CCC3)cc1C(F)(F)F [OSA_001077] | 64 | 64 |  |  |

| MIC [2, 5] [µg/mL] | MIC [3, 6] [µg/mL] | MIC ([2]; read-out: MSSA MIC) [µg/mL] | MRSA MIC [3] | MIC ([3]; read-out: MRSA MIC) [µg/mL] | MSSA MIC [2] [µg/mL] | Compound | PMM TC50 ([1]; PMM) [µM] | MRC5 TC50 ([4]; MRC5 cells) [µM] | PMM TC50 [1] [µg/mL] | MRC5 TC50 [4] [µg/mL] |
| --- | --- | --- | --- | --- | --- | --- | --- | --- | --- | --- |
|  |  | > 32 | 32 µg/mL | > 32 |  | Fc1ccc(NCc2c(-c3ccccn3)nc3ccccn23)cc1 [compound 1019] |  |  | 20.4 | 20.4 |
|  |  |  | > 32 µg/mL and 32 µg/mL |  | > 32 | CS(=O)(=O)c1ccc2nc(-c3ccccn3)c(Nc3ccc(F)cc3)n2c1 [compound 1020] |  |  | 12.2 | 24.5 |
|  |  | > 32 | 32 µg/mL | > 32 |  | CC(=O)N(c1ccc(F)cc1)c1c(-c2ccccn2)nc2ccccn12 [compound 1021] |  |  | 22.2 | 22.2 |
|  |  |  | > 32 µg/mL and 32 µg/mL |  | > 32 | Cc1ccc2nc(-c3ccccc3)cn2c1 [compound 1026] |  |  | 13.3 | 13.3 |
|  |  |  | > 32 µg/mL and 32 µg/mL |  | > 32 | Cc1ccc2nc(-c3ccccc3)c(CNc3ccc(F)cc3)n2c1 [compound 1027] |  |  | 21.2 | 21.2 |
|  |  |  | > 32 µg/mL and 32 µg/mL |  | > 32 | Cc1ccc2nc(-c3ccccc3)c(CNc3cccc(C(F)(F)F)c3)n2c1 [compound 1028] |  |  | 24.4 | 24.4 |
|  |  |  | 8 µg/mL |  | 8 | CCCCN(Cc1c(-c2ccccc2)nc2ccc(C)cn12)c1cccc(C(F)(F)F)c1 [compound 1029] |  |  | 3.5 | 0.5 |
|  |  |  | > 32 µg/mL and 32 µg/mL |  | > 32 | Cc1ccn2cc(-c3ccccn3)nc2c1 [compound 1030] |  |  | 13.4 | 4.6 |
|  |  |  | > 32 µg/mL and 32 µg/mL |  | > 32 | Cc1ccn2c(CN(CC(C)C)c3cccc(C(F)(F)F)c3)c(-c3ccccn3)nc2c1 [compound 1033] |  |  | 14.0 | 4.3 |
|  |  | 16 (≈ 48.6 µM) |  | 16 (≈ 48.6 µM) |  | FC(F)(F)c1ccc(-c2c(-c3ccccn3)nc3n2CCC3)cc1 [compound 1052] |  |  | 10.5 | 2.7 |
|  |  |  | > 32 µg/mL and 32 µg/mL |  | > 32 | Fc1ccc(-c2c(-c3ccccn3)nc3n2CCC3)cc1 [compound 1053] |  |  | 8.9 | 2.1 |
|  |  |  | > 32 µg/mL and 32 µg/mL |  | > 32 | c1ccc(-c2nc3n(c2-c2ccncc2)CCC3)nc1 [compound 1072] |  |  | 16.8 | 16.8 |
|  |  |  | > 32 µg/mL and 32 µg/mL |  | > 32 | Fc1cc(-c2c(-c3ccccn3)nc3n2CCC3)ccn1 [compound 1073] |  |  | 9.0 | 8.6 |
|  |  |  | > 32 µg/mL and 32 µg/mL |  | > 32 | Nc1ccc(-c2c(-c3ccccn3)nc3n2CCC3)cc1 [compound 1074] |  |  | 2.2 | 1.6 |
|  |  |  | > 32 µg/mL and 32 µg/mL |  | > 32 | N#Cc1ccc(-c2c(-c3ccccn3)nc3n2CCC3)cn1 [compound 1075] |  |  | 18.4 | 18.4 |
|  |  |  | > 32 µg/mL and 32 µg/mL |  | > 32 | COc1cc(-c2c(-c3ccccn3)nc3n2CCC3)ccc1C#N [compound 1076] |  |  | 20.2 | 8.8 |
|  |  |  | > 32 µg/mL and 32 µg/mL |  | > 32 | N#Cc1ccc(-c2c(-c3ccccn3)nc3n2CCC3)cc1C(F)(F)F [compound 1077] |  |  | 22.7 | 22.7 |
